Consider two molecules from US20260325510A1, “COMBINATIONS COMPRISING AN ATR INHIBITOR AND A PARP INHIBITOR AND METHODS OF USE THEREOF” (Jazz Pharmaceuticals Therapeutics, Inc., priority 2023, published 2026).

Structures are written as SMILES.

A short description of series [1]: Hematology tolerability study. The format is in vivo, female C57BL/6 mice. As to conditions: free ATR inhibitor in combination with free niraparib.
Method: In order to study the effects of hematology tolerability under different dosing regimens, 8-12 week old, female C57BL/6 mice were used. Body weight was measured qd×5, then biweekly to the end of the study. Animals were weighed and monitored for survival and in-life observations were collected at the time of weight measurement. […] Mice were monitored individually to endpoint which was 18 days. Full volume blood was collected by terminal cardiac puncture under isoflurane anesthesia and analyzed for reticulocyte count/number, red blood cell count/number, hemoglobin, hematocrit, platelet count/number, white blood cell count/number, neutrophil count/number, monocyte count/number and lymphocyte count/number.
The nature of series [2]: Baseline monotherapy tolerability, 4 weeks IV (complete blood count). Format: in vivo, female athymic nude mice. To be noted: 60 mg/kg IV, three times weekly. The procedure:
Maximum tolerated dose studies were conducted on healthy, 6-8 week-old female athymic nude mice (Jackson Laboratories). For baseline monotherapy tolerability, 60 mg/kg of niraparib both in free and liposomal form was IV administered to nude mice at a dosing schedule of every other day followed by a two-day holiday (i.e., three days per week) for 4-weeks (n=5 for each cohort). Free drug was supplied in hydroxybetacyclodextrin in HEPES Buffered Saline with 5% dextrose, pH adjusted to 7.4. Study mice were then sacrificed at 24-hours post final injection with endpoint blood collection by cardiac puncture. Complete blood count (CBC) was then conducted on a Vetscan HM5 hematology analyzer (Zoetis, New Jersey, USA).
This study was conducted over a 4-week period to better capture hematopoietic turnover. Athymic nude mice were selected due to the presence of normal levels of neutrophils, monocytes, and red blood cells on top of a reduced number of non-functional lymphocytes. The immunocompromised nature of athymic nude mice allowed for better comparative translation of dose sensitivity to fully immunocompromised mice (i.e. NSG) that are required for xenograft studies.

`CNCc1ccc(-c2cc(-c3nc(-c4ccc(S(=O)(=O)C(C)C)cc4)cnc3N)on2)cc1` [berzosertib]: the hematological toxicity entry in series [1] is “severe reticulocytopenia and leukopenia”. For `NC(=O)c1cccc2cn(-c3ccc([C@@H]4CCCNC4)cc3)nc12` [FREE-NIRB, niraparib], the hematological toxicity result in series [2] is reported as “significant hematological toxicity in the form of macrocytic anemia”.
